Patent US20060069132A1, “Azolecarboxamide herbicides” (priority 2004, published 2006)

Tests used:
barnyardgrass [1] = experiment: Test B pre-/postemergence herbicide test; assay type: in vivo, Echinochloa crus-galli; details: for Barnyardgrass plant response rating: postemergence, scale 0 (no effect) to 100 (complete control)
Summary of the method: (§1)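 Species tested were Echinochloa crus-galli, Ipomoea coccinea, Xanthium strumarium and Oryza sativa, treated both before emergence and at the 1- to 4-leaf stage; rice and barnyardgrass were also tested under flooding at 2 leaves. Greenhouse incubation lasted 13–15 days before visual 0–100 scoring.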

Surinam grass = experiment: Test B pre-/postemergence herbicide test; assay type: in vivo, Urochloa decumbens; details: for Surinam Grass plant response rating: postemergence
Summary of the method: (§2)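 Response was scored visually 13 to 15 days after treatment against untreated greenhouse controls, 0 meaning no effect and 100 complete control. Formulations (solvent mixture plus surfactant) went onto soil after planting, onto foliage of 1- to 4-leaf plants, and onto 2-leaf plants in a flooded paddy set including rice and barnyardgrass.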

cocklebur = experiment: Test B pre-/postemergence herbicide test; assay type: in vivo, Xanthium strumarium; details: for Cocklebur plant response rating: postemergence, scale 0 (no effect) to 100 (complete control)
Summary of the method: as §1

corn = experiment: Test B pre-/postemergence herbicide test; assay type: in vivo, Zea mays; details: for Corn plant response rating: postemergence
Summary of the method: as §2

large crabgrass = experiment: Test B pre-/postemergence herbicide test; assay type: in vivo, Digitaria sanguinalis; details: for Crabgrass, Large plant response rating: postemergence
Summary of the method: as §2

giant foxtail = experiment: Test B pre-/postemergence herbicide test; assay type: in vivo, Setaria faberi; details: for Foxtail, Giant plant response rating: postemergence
Summary of the method: as §2

lambsquarters = experiment: Test B pre-/postemergence herbicide test; assay type: in vivo, Chenopodium album; details: for Lambsquarters plant response rating: postemergence
Summary of the method: as §2

morningglory = experiment: Test B pre-/postemergence herbicide test; assay type: in vivo, Ipomoea coccinea; details: for Morningglory plant response rating: postemergence
Summary of the method: as §1

pigweed = experiment: Test B pre-/postemergence herbicide test; assay type: in vivo, Amaranthus retroflexus; details: for Pigweed plant response rating: postemergence
Summary of the method: as §2

rice [2] = experiment: Test B pre-/postemergence herbicide test; assay type: in vivo, Oryza sativa; details: 0 = no effect, 100 = complete control, preemergence
Summary of the method: as §2

velvetleaf = experiment: Test B pre-/postemergence herbicide test; assay type: in vivo, Abutilon theophrasti; details: for Velvetleaf plant response rating: postemergence
Summary of the method: as §2

blackgrass = experiment: Test B postemergence herbicide test; assay type: in vivo, Alopecurus myosuroides; details: postemergence, visual rating, scale 0 (no effect) to 100 (complete control)
Summary of the method: (§3)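 Plants grow to 1- to 4-leaf stage (2–18 cm) for postemergence spraying, or to 2-leaf stage for the paddy test. Formulated compound is applied. Greenhouse holding lasts 13–15 days. Response is scored visually relative to controls, 0 no effect to 100 complete control; a dash means no result.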

wheat = experiment: Test B postemergence herbicide test; assay type: in vivo, Triticum aestivum; design: key to Wheat plant response rating: 0 = no effect, 100 = complete control; details: postemergence
Summary of the method: (§4)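 Visual ratings, 0 (no effect) to 100 (complete control), made versus controls after 13–15 d greenhouse. Paddy plants treated at 2-leaf stage; postemergence plants at 1- to 4-leaf stage, 2–18 cm tall.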

wild oat = experiment: Test B postemergence herbicide test; assay type: in vivo, Avena fatua; details: postemergence
Summary of the method: as §4

rice [3] = experiment: Test B flooded paddy test; assay type: in vivo, Oryza sativa; details: 1000 g ai/ha, scale 0 to 100 (0 no effect, 100 complete control)
Summary of the method: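 Postemergence plants were sprayed with formulated test chemicals at 2 to 18 cm height (1- to 4-leaf stage); paddy species were grown to the 2-leaf stage. After 13 to 15 days in a greenhouse, injury was rated visually against untreated controls on a 0–100 scale (0 = no effect, 100 = complete control).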

[4] = tested on: small flower umbrella sedge; experiment: Test B flooded paddy test; assay type: in vivo, Cyperus difformis; details: 1000 g ai/ha, scale 0 to 100 (0 no effect, 100 complete control)
Summary of the method: as §3

ducksalad [5] = experiment: Test B flooded paddy test; assay type: in vivo, Heteranthera limosa; details: 1000 g ai/ha, scale 0 to 100 (0 no effect, 100 complete control)
Summary of the method: as §3

barnyardgrass [6] = experiment: Test B flooded paddy test; assay type: in vivo, Echinochloa crus-galli; details: 1000 g ai/ha, scale 0 to 100 (0 no effect, 100 complete control)
Summary of the method: as §3

rice [7] = experiment: Test C flooded paddy test; assay type: in vivo, Oryza sativa
Summary of the method: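 Plants were grown to the 1- to 4-leaf stage (2–18 cm) and then treated postemergence, or grown to the 2-leaf stage for the flooded paddy test. They were held in a greenhouse for 12 to 14 days and then scored by eye against controls, where 0 is no effect and 100 is complete control.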

[8] = tested on: smallflower umbrella sedge; experiment: Test C flooded paddy test; assay type: in vivo, Cyperus difformis
ducksalad [9] = experiment: Test C flooded paddy test; assay type: in vivo, Heteranthera limosa
barnyardgrass [10] = experiment: Test C flooded paddy test; assay type: in vivo, Echinochloa crus-galli
Summary of the method: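 Injury scored visually against controls on a 0 (no effect) to 100 (complete control) scale, 12 to 14 days after treatment in greenhouse. Flooded paddy plants treated at 2-leaf stage; postemergence plants at 1- to 4-leaf stage, 2 to 18 cm tall.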

[11] = 125 g ai/ha, 0 = no effect, 100 = complete control, preemergence
[12] = 500 g ai/ha, visual rating, 0 = no effect, 100 = complete control, preemergence
[13] = 125 g ai/ha, visual rating, scale 0 (no effect) to 100 (complete control)
[14] = 500 g ai/ha, scale 0 to 100, 0 is no effect, 100 is complete control
[15] = 125 g ai/ha, scale 0 to 100 (0 no effect, 100 complete control)
[16] = 250 g ai/ha, scale of 0 to 100, 0 is no effect, 100 is complete control
[17] = 500 g ai/ha, visual rating after 12 to 14 days, scale 0 to 100 (0 no effect, 100 complete control)

In the case of `CCNC(=O)c1ccc(OC)c(NC(=O)c2cc(C(C)(C)C)nn2CC)n1` [Compound 266], the “Barnyardgrass plant response rating (0 to 100 scale)” value (barnyardgrass [1]; [11]) is reported as 60, the “Plant response rating, Barnyardgrass” value (barnyardgrass [1]; [12]) is reported as 80 and the “Barnyardgrass plant response rating” value (barnyardgrass [1]; 125 g ai/ha, visual rating) is reported as 0. The “Barnyardgrass plant response rating” value (barnyardgrass [1]; 500 g ai/ha, visual rating) was 0, the “Surinam Grass plant response rating (0 to 100 scale)” value (Surinam grass; [11]) was 60 and the “Plant response rating, Surinam Grass” value (Surinam grass; [12]) was 90. For the same compound, the “Surinam Grass plant response rating” value (Surinam grass; [13]) was 10, the “Surinam Grass plant response rating” value (Surinam grass; [14]) was 20 and the “Cocklebur plant response rating (0 to 100 scale)” value (cocklebur; [11]) was 0. For the same compound, the “Plant response rating, Cocklebur” value (cocklebur; [12]) was 10, the “Cocklebur plant response rating” value (cocklebur; 125 g ai/ha, visual rating) was 0 and the “Cocklebur plant response rating” value (cocklebur; 500 g ai/ha, visual rating) was 0. The “Corn plant response rating (0 to 100 scale)” value (corn; [11]) was 0, the “Plant response rating, Corn” value (corn; [12]) was 90 and the “Corn plant response rating” value (corn; [13]) was 0. For the same compound, the “Corn plant response rating” value (corn; [14]) was 0, the “Crabgrass, Large plant response rating (0 to 100 scale)” value (large crabgrass; [11]) was 50 and the “Plant response rating, Crabgrass, Large” value (large crabgrass; [12]) was 100. For the same compound, the “Crabgrass, Large plant response rating” value (large crabgrass; [13]) was 0, the “Crabgrass, Large plant response rating” value (large crabgrass; [14]) was 0 and the “Foxtail, Giant plant response rating (0 to 100 scale)” value (giant foxtail; [11]) was 80. The “Plant response rating, Foxtail, Giant” value (giant foxtail; [12]) was 100, the “Foxtail, Giant plant response rating” value (giant foxtail; [13]) was 0 and the “Foxtail, Giant plant response rating” value (giant foxtail; [14]) was 20. The “Lambsquarters plant response rating (0 to 100 scale)” value (lambsquarters; [11]) was 100, the “Plant response rating, Lambsquarters” value (lambsquarters; [12]) was 100 and the “Lambsquarters plant response rating” value (lambsquarters; [13]) was 60. The “Lambsquarters plant response rating” value (lambsquarters; [14]) was 100, the “Morningglory plant response rating (0 to 100 scale)” value (morningglory; [11]) was 0 and the “Plant response rating, Morningglory” value (morningglory; [12]) was 10. For the same compound, the “Morningglory plant response rating” value (morningglory; [13]) was 30, the “Morningglory plant response rating” value (morningglory; [14]) was 50 and the “Pigweed plant response rating (0 to 100 scale)” value (pigweed; [11]) was 100. The “Plant response rating, Pigweed” value (pigweed; [12]) was 100, the “Pigweed plant response rating” value (pigweed; [13]) was 20 and the “Pigweed plant response rating” value (pigweed; [14]) was 100. For the same compound, the “Rice plant response rating (0 to 100 scale)” value (rice [2]; 125 g ai/ha) was 70, the “Plant response rating, Rice” value (rice [2]; 500 g ai/ha, visual rating) was 80 and the “Velvetleaf plant response rating (0 to 100 scale)” value (velvetleaf; [11]) was 20. The “Plant response rating, Velvetleaf” value (velvetleaf; [12]) was 100, the “Velvetleaf plant response rating” value (velvetleaf; [13]) was 0 and the “Velvetleaf plant response rating” value (velvetleaf; [14]) was 0. For the same compound, the “Blackgrass plant response rating” value (blackgrass; 125 g ai/ha) was 20, the “Blackgrass plant response rating” value (blackgrass; 500 g ai/ha) was 20 and the “Wheat plant response rating” value (wheat; [13]) was 20. The “Wheat plant response rating” value (wheat; [14]) was 30, the “Oat, Wild plant response rating” value (wild oat; [13]) was 10 and the “Oat, Wild plant response rating” value (wild oat; [14]) was 20. The “Rice plant response rating” value (rice [3]) was 80, the “Sedge, Umbrella plant response rating” value [4] was 80 and the “Ducksalad plant response rating” value (ducksalad [5]) was 90. The “Barnyardgrass plant response rating” value (barnyardgrass [6]) was 80, the “Rice plant response rating” value (rice [7]; 62 g ai/ha, scale 0 to 100) was 0 and the “Rice plant response rating” value (rice [7]; [15]) was 10. For the same compound, the “Rice plant response rating” value (rice [7]; [16]) was 65, the “Plant response rating, Rice” value (rice [7]; [17]) was 80 and the “Sedge, Umbrella plant response rating” value ([8]; 62 g ai/ha, scale 0 to 100) was 0. The “Sedge, Umbrella plant response rating” value [8, 15] was 20, the “Sedge, Umbrella plant response rating” value [8, 16] was 55 and the “Plant response rating, Sedge, Umbrella” value [8, 17] was 80. The “Ducksalad plant response rating” value (ducksalad [9]; 62 g ai/ha, scale 0 to 100) was 0, the “Ducksalad plant response rating” value (ducksalad [9]; [15]) was 15 and the “Ducksalad plant response rating” value (ducksalad [9]; [16]) was 75. For the same compound, the “Plant response rating, Ducksalad” value (ducksalad [9]; [17]) was 95, the “Barnyardgrass plant response rating” value (barnyardgrass [10]; 62 g ai/ha, scale 0 to 100 (0 no effect, 100 complete control)) was 0 and the “Barnyardgrass plant response rating” value (barnyardgrass [10]; [15]) was 25. For the same compound, the “Barnyardgrass plant response rating” value (barnyardgrass [10]; [16]) was 50 and the “Plant response rating, Barnyardgrass” value (barnyardgrass [10]; [17]) was 70.
